Where a name gives a salt, the structure may show the parent alone. Read-outs that look alike come from different tables or passages of the source.
Key:
[1] = anti-inflammatory steroids at typical concentration in topical products (triamcinolone acetonide 0.025%-0.1% medium, 0.5% high); cited from earlier work
[2] = Shakability of the composition; type: physicochemical
Excerpt: ‘Shakability’ means that the composition contains some or sufficient flow to allow the composition to be mixed or remixed on shaking. That is, it has fluid or semi fluid properties. A breakable foam is that is thermally stable, yet breaks under sheer force.
‘Shakability’ means that the composition contains some or sufficient flow to allow the composition to be mixed or remixed on shaking. That is, it has fluid or semi fluid properties. In some very limited cases it may still be possible to have a foamable composition which is flowable but not apparently shakable.

[3] = Foam appearance (color, odor, form); type: physicochemical; set-up: key to ODOR: No odor (N.O.); key to COLOR: white (W)
[4] = Predicted physical characteristics of the resultant foam after adding an active agent; type: physicochemical; details: predicted on adding the active (BMV […] w/w; estradiol hemihydrate about 0.0051% w/w) with modulating agent to the carrier of the example at the place
[5] = Chemical stability: amount of active agent in foam by HPLC on storage; type: physicochemical
Method: The amount of active agent present is analyzed in foam expelled from various pressurized canisters containing foam formulations using HPLC. Analysis is carried out at zero time and at appropriate time intervals thereafter. The canisters are stored in controlled temperature incubators at 5° C., at 25° C., at, 40° C. and at 50° C. At appropriate time intervals canisters are removed and the amount of active agent in the foam sample is measured. […] All samples were stored at 50° C. for 4 weeks, in order to assess their stability. The following table provides the results of this short-term stability study, which indicated high compatibility between the polyol composition and the steroid drugs, which are known to be temperature-sensitive.

[6] = cited from earlier work
[7] = system: candida albicans; assay: Comparative in-vitro antifungal activity (Petri dish spreading); type: cell-based
Excerpt: An exemplary case for the inclusion of an anti-infective agent in a hygroscopic composition is provided herewith. […] Thus, combining an antifungal agent in a hygroscopic composition results in an expansion of the spectrum of infective strains that can benefit form the therapy, and furthermore, in can render an improved effect of such a composition on mixed infections or in infections that are not accurately diagnosed.
A comparative in-vitro study was set to evaluate the effect of Composition A, consisting of 2% terbinafine, 95.3% gr. polyethylene glycol, 0.5% hydroxypropyl cellulose and 2.2% steareth-2, in comparison with Composition B (an oil in water emulsion containing 2% terbinafine) and Composition C a commercial 1% bifonazole cream.
Three fungal strains (microsporum canis, trichophyton mentagrophytes and trichophyton rubrum) and one yeast (candida albicans) were seeded in the center of a Petri dish, and then, were surrounded by a film containing each of the compositions, using a swab, soaked with each of the compositions. The proliferation and spreading of the microorganisms was followed up for 14 day by visual and photographic observations.

[8] = active agent in stock of PEG-400 97.5, hydroxypropyl cellulose 0.5, steareth 2 2.0 (first Example 29)
[9] = active agent in stock of propylene glycol 46, glycerin 33, dimethyl isosorbide 15, stearyl alcohol, hydroxypropyl cellulose, laureth-4, GMS/PEG 100 stearate (Example 30)
[10] = active agent in stock of propylene glycol 91, stearyl alcohol 2, Klucel EF 2, laureth-4 2, glyceryl monostearate/PEG 100 stearate 3 (second Example 29)

SMILES | Relative Potency [1] | SHAKABILITY [2, 8] | SHAKABILITY [2, 10] | COLOR [3, 8] | ODOR [3, 8] | COLOR [3, 10] | ODOR [3, 10] | further results
CCC(=O)OCC(=O)[C@@]1(OC(=O)CC)[C@H](C)C[C@H]2[C@H]3[C@H]([C@@H](O)C[C@@]21C)[C@@]1(C)C=CC(=O)C=C1C[C@H]3Cl [Alcometasone dipropionate] | Medium Potency | – | – | – | – | – | – | –
O=C(O)CCCCCCCC(=O)O [Azelaic acid] | – | Yes | Yes | W | N.O | W | N.O | SHAKABILITY [2, 9]: Yes; COLOR [3, 9]: W; ODOR [3, 9]: N.O
O=C(OOC(=O)c1ccccc1)c1ccccc1 [Benzoyl peroxide] | – | Yes | Yes | W | N.O | W | N.O | SHAKABILITY [2, 9]: Yes; COLOR [3, 9]: W; ODOR [3, 9]: N.O
CCCCC(=O)O[C@]1(C(=O)CO)[C@@H](C)C[C@H]2[C@@H]3CCC4=CC(=O)C=C[C@]4(C)[C@@]3(F)[C@@H](O)C[C@@]21C [Betamethasone 17 valerate micronized, Betamethasone 17 valerate] | Medium Potency | Yes | Yes | W | N.O | W | N.O | SHAKABILITY [2, 9]: Yes; COLOR [3, 9]: W; ODOR [3, 9]: N.O; effect on the physical characteristics of the resultant foam [4]: minimal effect
C[C@H]1C[C@H]2[C@@H]3CCC4=CC(=O)C=C[C@]4(C)[C@@]3(F)[C@@H](O)C[C@]2(C)[C@@]1(OC(=O)c1ccccc1)C(=O)CO [Betamethasone-17-benzoate] | High Potency | – | – | – | – | – | – | –
CCC(=O)OCC(=O)[C@@]1(OC(=O)CC)[C@@H](C)C[C@H]2[C@@H]3CCC4=CC(=O)C=C[C@]4(C)[C@@]3(F)[C@@H](O)C[C@@]21C [Bethamethasone Dipropionate] | High Potency | – | – | – | – | – | – | % Degradation after 4 weeks at 50° C. ([5]; 4 weeks): 0%
Cn1c(=O)c2c(ncn2C)n(C)c1=O [Caffeine] | – | Yes | Yes | W | N.O | W | N.O | SHAKABILITY [2, 9]: Yes; COLOR [3, 9]: W; ODOR [3, 9]: N.O
C=C1/C(=C\C=C2/CCC[C@]3(C)[C@@H]([C@H](C)/C=C/[C@@H](O)C4CC4)CC[C@@H]23)C[C@@H](O)C[C@@H]1O [Calcipotriol hydrate] | – | Yes | Yes | W | N.O | W | N.O | SHAKABILITY [2, 9]: Yes; COLOR [3, 9]: W; ODOR [3, 9]: N.O
Cc1cc(C2CCCCC2)n(O)c(=O)c1 [Ciclopiroxolamine] | – | Yes | Yes | W | N.O | W | N.O | SHAKABILITY [2, 9]: Yes; COLOR [3, 9]: W; ODOR [3, 9]: N.O
CCC(=O)O[C@]1(C(=O)CCl)[C@@H](C)C[C@H]2[C@@H]3CCC4=CC(=O)C=C[C@]4(C)[C@@]3(F)[C@@H](O)C[C@@]21C [Clobetasol Propionate] | Highest Potency | – | – | – | – | – | – | –
CCCC(=O)O[C@]1(C(=O)CCl)[C@H](C)C[C@@H]2[C@@H]3CCC4=CC(=O)C=C[C@]4(C)[C@]3(F)C(=O)C[C@@]21C [Clobetasone-17-butyrate] | Medium Potency | – | – | – | – | – | – | –
CC1(C)O[C@@H]2C[C@H]3[C@@H]4CCC5=CC(=O)C=C[C@]5(C)[C@H]4[C@@H](O)C[C@]3(C)[C@]2(C(=O)CO)O1 [Desonide] | Low Potency | – | – | – | – | – | – | –
C[C@]12CC[C@@H]3c4ccc(O)cc4CC[C@H]3[C@@H]1CC[C@@H]2O [Estradiol hemihydrate] | – | – | – | – | – | – | – | effect on the physical characteristics of the resultant foam [4]: minimal effect
CC(=O)OCC(=O)[C@@]12OC(C)(C)O[C@@H]1C[C@H]1[C@@H]3C[C@H](F)C4=CC(=O)C=C[C@]4(C)[C@@]3(F)[C@@H](O)C[C@@]12C [Flucinonide] | Medium Potency | – | – | – | – | – | – | –
CC1(C)O[C@@H]2C[C@H]3[C@@H]4C[C@H](F)C5=CC(=O)C=C[C@]5(C)[C@@]4(F)[C@@H](O)C[C@]3(C)[C@]2(C(=O)CO)O1 [Fluocinolone Acetonide] | Medium Potency | – | – | – | – | – | – | –
CC1(C)O[C@@H]2C[C@H]3[C@@H]4CCC5=CC(=O)CC[C@]5(C)[C@@]4(F)[C@@H](O)C[C@]3(C)[C@]2(C(=O)CCl)O1 [Halcinonide] | High Potency | – | – | – | – | – | – | –
CC(=O)OCC(=O)[C@@]1(O)CC[C@H]2[C@@H]3CCC4=CC(=O)CC[C@]4(C)[C@H]3[C@@H](O)C[C@@]21C [Hydrocortison Acetate] | Low Potency | – | – | – | – | – | – | –
CCCC(=O)O[C@]1(C(=O)CO)CC[C@H]2[C@@H]3CCC4=CC(=O)CC[C@]4(C)[C@H]3[C@@H](O)C[C@@]21C [Hydrocortison Butyrate] | – | – | – | – | – | – | – | % Degradation after 4 weeks at 50° C. ([5]; steroid in TECH-PG 032, stored at 50° C. for 4 weeks): 2.6%; % Degradation after 4 weeks at 50° C. ([5]; steroid in TECH-PG 033, stored at 50° C. for 4 weeks): 2.8%
C[C@]12CCC(=O)C=C1CC[C@@H]1[C@@H]2[C@@H](O)C[C@@]2(C)[C@H]1CC[C@]2(O)C(=O)CO [Hydrocortisone] | Low Potency | – | – | – | – | – | – | –
CC(=O)N1CCN(c2ccc(OCC3COC(Cn4ccnc4)(c4ccc(Cl)cc4Cl)O3)cc2)CC1 (stereo not drawn) [Ketoconazole] | – | Yes | Yes | W | N.O | W | N.O | –
CCC(=O)O[C@]1(C(=O)COC(C)=O)CC[C@H]2[C@@H]3C[C@H](C)C4=CC(=O)C=C[C@]4(C)[C@H]3[C@@H](O)C[C@@]21C [Methylprednisolone aceponate] | High Potency | – | – | – | – | – | – | –
C[C@@H]1C[C@H]2[C@@H]3CCC4=CC(=O)C=C[C@]4(C)[C@@]3(Cl)[C@@H](O)C[C@]2(C)[C@@]1(OC(=O)c1ccco1)C(=O)CCl [Mometasone furoate] | Medium Potency | – | – | – | – | – | – | –
C/C(=C\C(=O)OCCCCCCCCC(=O)O)C[C@@H]1OC[C@H](C[C@@H]2O[C@H]2[C@@H](C)[C@H](C)O)[C@@H](O)[C@H]1O [Mupirocin] | – | Yes | Yes | W | N.O | W | N.O | solubility ([6]; in mineral oil and other commonly used ointment solvents): practically insoluble
CC1(C)C(C=C(Cl)Cl)C1C(=O)OCc1cccc(Oc2ccccc2)c1 (stereo not drawn) [Permethrin BPC (cis:trans 25:75), Permethrin] | – | Yes | Yes | W | N.O | O.W | No | –
CN1C(C(=O)Nc2ccccn2)=C(O)c2ccccc2S1(=O)=O [Piroxicam] | – | Yes | Yes | Light | N.O | O.W | No | –
CCOC(=O)O[C@]1(C(=O)COC(=O)CC)CC[C@H]2[C@@H]3CCC4=CC(=O)C=C[C@]4(C)[C@H]3[C@@H](O)C[C@@]21C [Prednicarbate] | Medium Potency | – | – | – | – | – | – | –
O=C(O)c1ccccc1O [Salicylic acid] | – | Yes | Yes | W | N.O | O.W | No | –
CN(C/C=C/C#CC(C)(C)C)Cc1cccc2ccccc12 [Terbinafine HCl] | – | Yes | Yes | W | N.O | W | No | –
CN(C/C=C/C#CC(C)(C)C)Cc1cccc2ccccc12 [terbinafine] | – | – | – | – | – | – | – | inhibition of the spreading of candida albicans ([7]; control preparation, same concentration in an emulsion base): not effective; inhibition of the spreading of candida albicans ([7]; dissolved in a hygroscopic carrier): effectively inhibited the spreading; solubility ([6]; in common formulation excipients): hard to dissolve
